{"source": "patent US20260266848A1", "about": "“COMPOSITIONS AND METHODS FOR DIAGNOSING AND TREATING DYSTONIA” (Duke University, priority 2023, published 2026)", "tested_on": "WT MEF EVs", "test": "Quantitative LC-MS/MS proteomics of EVs from ISRIB-treated WT MEF cultures", "assay_type": "cell-based, mouse", "data": [{"smiles": "O=C(COc1ccc(Cl)cc1)NC1CCC(NC(=O)COc2ccc(Cl)cc2)CC1", "note": "(centres unmarked) [ISRIB, reference compound]", "values": [{"measurement": "Hnrnpc (HNRNPC) EV abundance Log2_FC", "setting": "WT+ISRIB/WT, 50 nM, 24 h", "value": 1.478}, {"measurement": "Ipo9 (IPO9) EV abundance Cohen's d", "setting": "WT+ISRIB/WT, 50 nM, 24 h", "value": "−0.4661"}, {"measurement": "Ipo9 (IPO9) EV abundance Log2_FC", "setting": "WT+ISRIB/WT, 50 nM, 24 h", "value": "−0.5386"}, {"measurement": "Jam3 (JAM3) EV abundance Cohen's d", "setting": "WT+ISRIB/WT, 50 nM, 24 h", "value": "−0.3267"}, {"measurement": "Jam3 (JAM3) EV abundance Log2_FC", "setting": "WT+ISRIB/WT, 50 nM, 24 h", "value": 0.373}, {"measurement": "Lipg (LIPG) EV abundance Cohen's d", "setting": "WT+ISRIB/WT, 50 nM, 24 h", "value": 0.7395}, {"measurement": "Lipg (LIPG) EV abundance Log2_FC", "setting": "WT+ISRIB/WT, 50 nM, 24 h", "value": "−0.3639"}, {"measurement": "Lrrc59 (LRRC59) EV abundance Cohen's d", "setting": "WT+ISRIB/WT, 50 nM, 24 h", "value": "−0.6884"}, {"measurement": "Lrrc59 (LRRC59) EV abundance Log2_FC", "setting": "WT+ISRIB/WT, 50 nM, 24 h", "value": 0.3431}, {"measurement": "Mapk3 (MAPK3) EV abundance Cohen's d", "setting": "WT+ISRIB/WT, 50 nM, 24 h", "value": "−0.8739"}, {"measurement": "Mapk3 (MAPK3) EV abundance Log2_FC", "setting": "WT+ISRIB/WT, 50 nM, 24 h", "value": "−0.163"}, {"measurement": "Mars (MARS1) EV abundance Cohen's d", "setting": "WT+ISRIB/WT, 50 nM, 24 h", "value": 0.05955}, {"measurement": "Mars (MARS1) EV abundance Log2_FC", "setting": "WT+ISRIB/WT, 50 nM, 24 h", "value": "−0.3717"}, {"measurement": "Mrc2 (MRC2) EV abundance Cohen's d", "setting": "WT+ISRIB/WT, 50 nM, 24 h", "value": 0.2117}, {"measurement": "Mrc2 (MRC2) EV abundance Log2_FC", "setting": "WT+ISRIB/WT, 50 nM, 24 h", "value": "−0.2942"}, {"measurement": "Myh9 (MYH9) EV abundance Cohen's d", "setting": "WT+ISRIB/WT, 50 nM, 24 h", "value": "−0.02365"}, {"measurement": "Myh9 (MYH9) EV abundance Log2_FC", "setting": "WT+ISRIB/WT, 50 nM, 24 h", "value": 0.05232}, {"measurement": "Ndnf (NDNF) EV abundance Cohen's d", "setting": "WT+ISRIB/WT, 50 nM, 24 h", "value": 1.071}, {"measurement": "Ndnf (NDNF) EV abundance Log2_FC", "setting": "WT+ISRIB/WT, 50 nM, 24 h", "value": "−0.1375"}, {"measurement": "Pcmt1 (PCMT1) EV abundance Cohen's d", "setting": "WT+ISRIB/WT, 50 nM, 24 h", "value": "−0.8553"}, {"measurement": "Pcmt1 (PCMT1) EV abundance Log2_FC", "setting": "WT+ISRIB/WT, 50 nM, 24 h", "value": "−0.06624"}, {"measurement": "Pi4ka (PI4KA) EV abundance Cohen's d", "setting": "WT+ISRIB/WT, 50 nM, 24 h", "value": "−0.4893"}, {"measurement": "Pi4ka (PI4KA) EV abundance Log2_FC", "setting": "WT+ISRIB/WT, 50 nM, 24 h", "value": 0.3826}, {"measurement": "Pitpnb (PITPNB) EV abundance Cohen's d", "setting": "WT+ISRIB/WT, 50 nM, 24 h", "value": "−1.114"}, {"measurement": "Pitpnb (PITPNB) EV abundance Log2_FC", "setting": "WT+ISRIB/WT, 50 nM, 24 h", "value": 1.461}, {"measurement": "Prpsap2 (PRPSAP2) EV abundance Cohen's d", "setting": "WT+ISRIB/WT, 50 nM, 24 h", "value": 0.2158}, {"measurement": "Prpsap2 (PRPSAP2) EV abundance Log2_FC", "setting": "WT+ISRIB/WT, 50 nM, 24 h", "value": "−0.6725"}, {"measurement": "Psmc5 (PSMC5) EV abundance Cohen's d", "setting": "WT+ISRIB/WT, 50 nM, 24 h", "value": 0.4267}, {"measurement": "Psmc5 (PSMC5) EV abundance Log2_FC", "setting": "WT+ISRIB/WT, 50 nM, 24 h", "value": "−0.3622"}, {"measurement": "Psmd12 (PSMD12) EV abundance Cohen's d", "setting": "WT+ISRIB/WT, 50 nM, 24 h", "value": 0.00373}, {"measurement": "Psmd12 (PSMD12) EV abundance Log2_FC", "setting": "WT+ISRIB/WT, 50 nM, 24 h", "value": "−0.3805"}, {"measurement": "Psme4 (PSME4) EV abundance Cohen's d", "setting": "WT+ISRIB/WT, 50 nM, 24 h", "value": "−0.8162"}, {"measurement": "Psme4 (PSME4) EV abundance Log2_FC", "setting": "WT+ISRIB/WT, 50 nM, 24 h", "value": "−0.7974"}, {"measurement": "Ptma (PTMA) EV abundance Cohen's d", "setting": "WT+ISRIB/WT, 50 nM, 24 h", "value": 0.6355}, {"measurement": "Ptma (PTMA) EV abundance Log2_FC", "setting": "WT+ISRIB/WT, 50 nM, 24 h", "value": 2.638}, {"measurement": "Rap2b (RAP2B) EV abundance Cohen's d", "setting": "WT+ISRIB/WT, 50 nM, 24 h", "value": 0.3788}, {"measurement": "Rap2b (RAP2B) EV abundance Log2_FC", "setting": "WT+ISRIB/WT, 50 nM, 24 h", "value": "−0.1245"}, {"measurement": "Rbm3 (RBM3) EV abundance Cohen's d", "setting": "WT+ISRIB/WT, 50 nM, 24 h", "value": "−0.3159"}, {"measurement": "Rbm3 (RBM3) EV abundance Log2_FC", "setting": "WT+ISRIB/WT, 50 nM, 24 h", "value": 0.2028}, {"measurement": "Rhoa (RHOA) EV abundance Cohen's d", "setting": "WT+ISRIB/WT, 50 nM, 24 h", "value": "−1.25"}, {"measurement": "Rhoa (RHOA) EV abundance Log2_FC", "setting": "WT+ISRIB/WT, 50 nM, 24 h", "value": "−0.00598"}, {"measurement": "Rpl10 (RPL10) EV abundance Cohen's d", "setting": "WT+ISRIB/WT, 50 nM, 24 h", "value": "−0.35"}, {"measurement": "Rpl10 (RPL10) EV abundance Log2_FC", "setting": "WT+ISRIB/WT, 50 nM, 24 h", "value": 0.00077}, {"measurement": "Rpl13a (RPL13A) EV abundance Cohen's d", "setting": "WT+ISRIB/WT, 50 nM, 24 h", "value": 0.3123}, {"measurement": "Rpl13a (RPL13A) EV abundance Log2_FC", "setting": "WT+ISRIB/WT, 50 nM, 24 h", "value": 0.04217}, {"measurement": "Rps13 (RPS13) EV abundance Cohen's d", "setting": "WT+ISRIB/WT, 50 nM, 24 h", "value": "−0.2269"}, {"measurement": "Rps13 (RPS13) EV abundance Log2_FC", "setting": "WT+ISRIB/WT, 50 nM, 24 h", "value": 0.2809}, {"measurement": "Sec31a (SEC31A) EV abundance Cohen's d", "setting": "WT+ISRIB/WT, 50 nM, 24 h", "value": "−0.3764"}, {"measurement": "Sec31a (SEC31A) EV abundance Log2_FC", "setting": "WT+ISRIB/WT, 50 nM, 24 h", "value": "−0.2838"}, {"measurement": "Slc2a1 (SLC2A1) EV abundance Cohen's d", "setting": "WT+ISRIB/WT, 50 nM, 24 h", "value": "−0.34"}, {"measurement": "Slc2a1 (SLC2A1) EV abundance Log2_FC", "setting": "WT+ISRIB/WT, 50 nM, 24 h", "value": 0.08012}, {"measurement": "Stom (STOM) EV abundance Cohen's d", "setting": "WT+ISRIB/WT, 50 nM, 24 h", "value": "−0.7279"}, {"measurement": "Stom (STOM) EV abundance Log2_FC", "setting": "WT+ISRIB/WT, 50 nM, 24 h", "value": 0.1135}, {"measurement": "Tardbp (TARDBP) EV abundance Cohen's d", "setting": "WT+ISRIB/WT, 50 nM, 24 h", "value": "−0.3087"}, {"measurement": "Tardbp (TARDBP) EV abundance Log2_FC", "setting": "WT+ISRIB/WT, 50 nM, 24 h", "value": "−0.06285"}, {"measurement": "Tgfb2 (TGFB2) EV abundance Cohen's d", "setting": "WT+ISRIB/WT, 50 nM, 24 h", "value": 0.6984}, {"measurement": "Tgfb2 (TGFB2) EV abundance Log2_FC", "setting": "WT+ISRIB/WT, 50 nM, 24 h", "value": "−0.319"}, {"measurement": "Tln1 (TLN1) EV abundance Cohen's d", "setting": "WT+ISRIB/WT, 50 nM, 24 h", "value": "−0.39"}, {"measurement": "Tln1 (TLN1) EV abundance Log2_FC", "setting": "WT+ISRIB/WT, 50 nM, 24 h", "value": "−0.05074"}, {"measurement": "Tln2 (TLN2) EV abundance Cohen's d", "setting": "WT+ISRIB/WT, 50 nM, 24 h", "value": "−0.7484"}, {"measurement": "Tln2 (TLN2) EV abundance Log2_FC", "setting": "WT+ISRIB/WT, 50 nM, 24 h", "value": "−0.02524"}, {"measurement": "Tubb1 (TUBB1) EV abundance Cohen's d", "setting": "WT+ISRIB/WT, 50 nM, 24 h", "value": 0.3005}, {"measurement": "Tubb1 (TUBB1) EV abundance Log2_FC", "setting": "WT+ISRIB/WT, 50 nM, 24 h", "value": 0.1945}, {"measurement": "Usp7 (USP7) EV abundance Cohen's d", "setting": "WT+ISRIB/WT, 50 nM, 24 h", "value": "−0.3328"}, {"measurement": "Usp7 (USP7) EV abundance Log2_FC", "setting": "WT+ISRIB/WT, 50 nM, 24 h", "value": "−0.8347"}, {"measurement": "Wdr26 (WDR26) EV abundance Cohen's d", "setting": "WT+ISRIB/WT, 50 nM, 24 h", "value": "−0.2688"}, {"measurement": "Wdr26 (WDR26) EV abundance Log2_FC", "setting": "WT+ISRIB/WT, 50 nM, 24 h", "value": "−0.05756"}, {"measurement": "Zyx (ZYX) EV abundance Cohen's d", "setting": "WT+ISRIB/WT, 50 nM, 24 h", "value": "−0.131"}, {"measurement": "Zyx (ZYX) EV abundance Log2_FC", "setting": "WT+ISRIB/WT, 50 nM, 24 h", "value": 0.1801}, {"measurement": "Pearson r between DYT genotype effects and ISRIB effects", "setting": "entire proteome", "value": 0.37}, {"measurement": "Pearson r between DYT genotype effects and ISRIB effects", "setting": "genotype-disrupted proteins", "value": 0.40}]}]}
